Values quoted from earlier work, collected in patent US10633811B1, “Apparatus and method for collecting and disposing of pet waste” (COSMIC PET LLC, priority 2017, dated 2020).

Key:
[1] = tested on: C. jejuni C338; settings: Table 3, single compounds; Nutrient Broth No. 2, 37° C., Tween 80 0.002% vol/vol
[2] = tested on: C. coli ATCC 43484; settings: Table 3, single compounds; Nutrient Broth No. 2, 37° C., Tween 80 0.002% vol/vol
[3] = tested on: Campylobacter spp.; settings: against Campylobacter spp., E. coli, S. typhimurium, and E. faecalis
[4] = tested on: C. jejuni 3393; settings: Table 3, single compounds; Nutrient Broth No. 2, 37° C., Tween 80 0.002% vol/vol
[5] = tested on: E. faecalis ATCC 29212; settings: Table 3, single compounds; Nutrient Broth No. 2, 37° C., Tween 80 0.002% vol/vol
[6] = tested on: S. typhimurium ATCC 14028; settings: Table 3, single compounds; Nutrient Broth No. 2, 37° C., Tween 80 0.002% vol/vol
[7] = tested on: E. coli O26; settings: Table 3, single compounds; Nutrient Broth No. 2, 37° C., Tween 80 0.002% vol/vol
[8] = tested on: Pseudomonas aeruginosa PAO1; settings: CAMHB, 0.1% Tween 80
[9] = tested on: C.jejuni 81116
[10] = tested on: C.jejuni 108
[11] = tested on: Campylobacter jejuni; settings: strain not given

Row | Compound | C. jejuni C338 (MIC %) [1] [%] | C. coli ATCC 43484 (MIC %) [2] [%] | antimicrobial activity among single compounds [3] | C. jejuni 3393 (MIC %) [4] [%] | E. faecalis ATCC 29212 (MIC %) [5] [%] | S. typhimurium ATCC 14028 (MIC %) [6] [%] | E. coli O26 (MIC %) [7] [%] | MIC [8] [%] | C.jejuni 81116 MIC [9] [µM] | C.jejuni 108 MIC [10] [µM] | concentration that inhibits Campylobacter jejuni [11] [mM]
1 | CC1=CCC(O)(C(C)C)CC1 (stereo not shown) [Terpinen-4-ol] | 0.06 | 0.06 | highest activity | 0.06 | 0.5 | 0.06 | 0.06 |  |  |  | 
2 | C=CCc1ccc(O)c(OC)c1 [Eugenol] |  |  |  |  |  |  |  | >5 |  |  | 
3 | C=CC(C)(O)CCC=C(C)CCC=C(C)C (stereo not shown) [Nerolidol] | 0.5 | 1 |  | 0.5 | >2 | >2 | >2 |  |  |  | 
4 | C=CC(C)(O)CCC=C(C)C (stereo not shown) [Linalool] |  |  |  |  |  |  |  | >5 |  |  | 
5 | CC12CCC(CC1)C(C)(C)O2 [Cineole] | 0.25 | 0.25 |  | 0.25 | >2 | 2 | 1 |  |  |  | 
6 | O=CC=Cc1ccccc1 [Cinnamaldehyde] |  |  |  |  |  |  |  | 0.1 |  |  | 
7 | α-Bisabolol | 0.5 | 0.5 |  | 0.125 | >2 | >2 | 2 |  |  |  | 
8 | CC1=CC=C(C(C)C)CC1 [α-Terpinene] | 0.25 | 0.125 |  | 0.125 | >2 | >2 | >2 |  |  |  | 
9 | Cc1ccc(C(C)C)cc1O [Carvacrol] |  |  |  |  |  |  |  |  | 300 to 400 | 300 to 400 | 0.3 to 0.4
